Calls of active or inactive are those of the source. No rule for the calls is given here.
Test system: GENE-TOX genotoxicity assays, various organisms and cells
Test: GENE-TOX mutagenicity studies
Conditions: for call: Assay Type: In vivo carcinogenicity studies
[1] = Species/Cell Type: Salmonella typhimurium (one or more of the five standard strains: TA98, TA100, TA1535, TA1537, and TA1538), Assay Type: Histidine reverse gene mutation, Ames assay, Assay Code: SALT, Evaluation Type: Evaluation A (Pre-1980)
[2] = Species/Cell Type: Salmonella typhimurium, Assay Type: Forward and reverse gene mutation, host-mediated assay, Assay Code: HMAT, Evaluation Type: Evaluation A (Pre-1980)
[3] = Species/Cell Type: Salmonella typhimurium (one or more of the five standard strains: TA98, TA100, TA1535, TA1537, and TA1538), Assay Type: Histidine reverse gene mutation, Ames assay, Assay Code: SAL+, Evaluation Type: Evaluation A (Pre-1980)
[4] = Species/Cell Type: Human lymphocytes, Assay Type: Sister-chromatid exchange (SCE) in vitro, Assay Code: SCLT, Evaluation Type: Evaluation B (Post-1980)
[5] = Species/Cell Type: Human, Assay Type: Sister-chromatid exchange (SCE) in vitro, Assay Code: SC1T, Evaluation Type: Evaluation B (Post-1980)
[6] = Species/Cell Type: Nonhuman, Assay Type: Sister-chromatid exchange (SCE) in vitro, Assay Code: SC2+D, Dose Response: With dose response, Evaluation Type: Evaluation B (Post-1980)
[7] = Species/Cell Type: Nonhuman, Assay Code: CCG+, Evaluation Type: Evaluation A (Pre-1980)
[8] = Species/Cell Type: Bacillus subtilis (H17 vs M45), Assay Type: Rec-assay, spot test, DNA effects (bacterial DNA repair), Assay Code: REW+, Evaluation Type: Evaluation A (Pre-1980)
[9] = Species/Cell Type: Rodents, Sex: Male, Assay Type: Dominant lethal test, Assay Code: DLT-, Evaluation Type: Evaluation A (Pre-1980)
[10] = Species/Cell Type: Saccharomyces cerevisiae, Assay Type: Reverse gene mutation, Assay Code: YER+, Evaluation Type: Evaluation A (Pre-1980)
[11] = Species/Cell Type: Chinese hamster ovary (CHO) cells, Assay Type: Forward gene mutation at the HPRT locus, Assay Code: CHOT, Evaluation Type: Evaluation B (Post-1980)
[12] = Species/Cell Type: Human lymphocytes, Assay Type: Sister-chromatid exchange (SCE) in vitro, Assay Code: SCL+D, Dose Response: With dose response, Evaluation Type: Evaluation B (Post-1980)
[13] = Species/Cell Type: Human, Assay Type: Sister-chromatid exchange (SCE) in vitro, Assay Code: SC1+D, Dose Response: With dose response, Evaluation Type: Evaluation B (Post-1980)
[14] = Species/Cell Type: Nonhuman, Assay Code: CCG+L, Evaluation Type: Evaluation A (Pre-1980)
[15] = Species/Cell Type: Salmonella typhimurium, Assay Type: Forward and reverse gene mutation, host-mediated assay, Assay Code: HMA+, Evaluation Type: Evaluation A (Pre-1980)

With COc1ccc(/C=N\NC(=O)COc2ccc(Br)cc2CN2CCCCC2)cc1 the mutagenic call (Species/Cell Type: Saccharomyces cerevisiae, Assay Type: Reverse gene mutation, Assay Code: YERT, Evaluation Type: Evaluation A (Pre-1980)) was “no conclusion”.
For FC(F)OC(F)(F)C(F)Cl (configuration not stated), the mutagenic call (Species/Cell Type: Chinese hamster lung (V79) cells, Assay Type: Forward gene mutation at the HPRT or ouabain locus, Assay Code: V79-, Evaluation Type: Evaluation A (Pre-1980)) was “inactive; negative”, the mutagenic call (Species/Cell Type: Human lymphocytes, Assay Type: Sister-chromatid exchange (SCE) in vivo, Assay Code: SCY+, Evaluation Type: Evaluation B (Post-1980)) was “active; positive” and the mutagenic call (Species/Cell Type: Mouse, Sex: Male, Assay Type: Sperm morphology, Assay Code: SPIT, Evaluation Type: Evaluation A (Pre-1980)) was “no conclusion”. The mutagenic call (Species/Cell Type: Nonhuman, Assay Type: Sister-chromatid exchange (SCE) in vitro, Assay Code: SC2T, Evaluation Type: Evaluation B (Post-1980)) was “no conclusion” and the mutagenic call [1] was “no conclusion”.
With Clc1c(N2CC2)nc(N2CC2)nc1N1CC1 the mutagenic call (Species/Cell Type: Aspergillus nidulans, Assay Type: Reverse gene mutation, Assay Code: ASR+, Evaluation Type: Evaluation A (Pre-1980)) was “active; positive”.
In the case of COC(=O)Nc1ncc(-c2ccc(Br)cc2)[nH]1, the mutagenic call [2] is reported as “no conclusion”.
In the case of c1ccc2cnccc2c1, the mutagenic call [1] is reported as “no conclusion”.
Cc1ccc2cccc([N+](=O)[O-])c2n1 was tested, and the mutagenic call [3] was “active; positive”.
With N[C@@H](CCC(=O)N[C@@H](CS)C(=O)NCC(=O)O)C(=O)O the mutagenic call [4] was “no conclusion”, the mutagenic call [5] was “no conclusion” and the mutagenic call [6] was “active; positive”.
O=Cc1ccc(C(=O)O)cc1 was tested, and the mutagenic call (Species/Cell Type: Syrian hamster embryo (SA7/SHE) cells, Assay Type: Cell transformation, viral enhanced, Assay Code: CT7+, Evaluation Type: Evaluation A (Pre-1980)) was “active; positive”.
In the case of CN=C1CN(O)C(c2ccccc2)=c2cc(Cl)ccc2=N1, the mutagenic call (Species/Cell Type: Mammalian polychromatic erythrocytes, Assay Type: Micronucleus test, chromosome aberrations, Assay Code: MNT+, Evaluation Type: Evaluation B (Post-1980)) is reported as “active; positive”, the mutagenic call (Species/Cell Type: Saccharomyces cerevisiae, Assay Type: Mitotic recombination or gene conversion, Assay Code: YEC-*, Activation: With metabolic activation, Evaluation Type: Evaluation A (Pre-1980)) is reported as “inactive; negative” and the mutagenic call [1] is reported as “no conclusion”. The mutagenic call [2] was “no conclusion”.
In the case of c1ccc2c(c1)-c1ccc3ccc4cccc5cc-2c1c3c45, the call [7] is reported as “active; positive”.
[O]=[V](=[O])[OH] was tested, and the mutagenic call [8] was “active; positive”.
With O=S(O)O the mutagenic call (Species/Cell Type: Escherichia coli WP2 UVRA, Assay Type: Tryptophan reverse gene mutation, Assay Code: WPU-*, Activation: With metabolic activation, Evaluation Type: Evaluation A (Pre-1980)) was “inactive; negative”, the mutagenic call (Species/Cell Type: Mouse, Sex: Male, Assay Type: Heritable translocation test, chromosome aberrations, Assay Code: HTT-, Evaluation Type: Evaluation A (Pre-1980)) was “inactive; negative” and the mutagenic call (Species/Cell Type: Mouse, Sex: Male, Assay Type: Specific locus test, gene mutation, Assay Code: SLT-, Evaluation Type: Evaluation A (Pre-1980)) was “inactive; negative”. For the same compound, the mutagenic call [6] was “active; positive”, the mutagenic call [9] was “inactive; negative” and the mutagenic call [10] was “active; positive”.
In the case of COc1ccc2nc3cc(Cl)ccc3c(NCCCNCCO)c2c1, the mutagenic call (Species/Cell Type: Chinese hamster ovary (CHO) cells, Assay Type: Forward gene mutation at the HPRT locus, Assay Code: CHO-, Evaluation Type: Evaluation A (Pre-1980)) is reported as “inactive; negative”, the mutagenic call [11] is reported as “no conclusion” and the mutagenic call [1] is reported as “no conclusion”.
With CCOP(=O)(OCC)Oc1cc(C)nc(C(C)C)n1 the mutagenic call [6] was “active; positive”.
With CCOc1ccccc1C(N)=O the mutagenic call (Species/Cell Type: Human, Assay Type: Sister-chromatid exchange (SCE) in vitro, Assay Code: SC1+, Evaluation Type: Evaluation B (Post-1980)) was “active; positive”.
C=Cc1cccc(C)c1 was tested, and the mutagenic call [12] was “active; positive” and the mutagenic call [13] was “active; positive”.
For COc1cc(N=Nc2ccccc2)ccc1N, the mutagenic call (Species/Cell Type: Escherichia coli polA (W3110 vs P3478), Assay Type: Rec-assay, DNA effects (bacterial DNA repair), Assay Code: RE2+, Evaluation Type: Evaluation A (Pre-1980)) was “active; positive”, the mutagenic call (Species/Cell Type: Escherichia coli polA (W3119 vs P3478), Assay Type: Rec-assay, DNA effects (bacterial DNA repair), Assay Code: RE1T, Evaluation Type: Evaluation A (Pre-1980)) was “no conclusion” and the call [14] was “active; positive”. The mutagenic call (Species/Cell Type: Saccharomyces cerevisiae, Assay Type: Mitotic recombination or gene conversion, Assay Code: YEH+/-*, Activation: With metabolic activation, Evaluation Type: Evaluation A (Pre-1980)) was “inactive; positive without activation, negative with activation”, the mutagenic call (Species/Cell Type: Salmonella typhimurium (one or more of the five standard strains: TA98, TA100, TA1535, TA1537, and TA1538), Assay Type: Histidine reverse gene mutation, Ames assay, Assay Code: SAL+*, Activation: With metabolic activation, Evaluation Type: Evaluation A (Pre-1980)) was “active; positive” and the mutagenic call [15] was “active; positive”. For the same compound, the mutagenic call (Species/Cell Type: Syrian hamster embryo (SHE) cells, Assay Type: Cell transformation, clonal assay, Assay Code: CTC+, Evaluation Type: Evaluation A (Pre-1980)) was “active; positive”.
In the case of Nc1nnc(-c2ccc([N+](=O)[O-])o2)s1, the call [7] is reported as “active; positive”.
In the case of c1ccc2c(c1)Sc1ccccc1N2CCCN1CCNCC1, the mutagenic call [4] is reported as “no conclusion” and the mutagenic call [5] is reported as “no conclusion”.
In the case of CCN(CC)CCn1nc2c3c(c(CO)ccc31)Sc1cc(Cl)ccc1-2, the mutagenic call (Species/Cell Type: Drosophila melanogaster, Assay Type: Sex-linked recessive lethal gene mutation, Assay Code: SRL-, Evaluation Type: Evaluation A (Pre-1980)) is reported as “inactive; negative”, the mutagenic call (Species/Cell Type: Fischer rat embryo (RLV/1706) cells, Assay Type: Cell transformation, viral enhanced, Assay Code: CTR-, Evaluation Type: Evaluation A (Pre-1980)) is reported as “inactive; negative” and the mutagenic call (Species/Cell Type: Mouse lymphoma (L5178Y) cells, Assay Type: Forward gene mutation at the thymidine kinase (TK) locus, chromosome aberrations, Assay Code: L51+, Evaluation Type: Evaluation A (Pre-1980)) is reported as “active; positive”. The mutagenic call (Species/Cell Type: Neurospora crassa, Assay Type: Forward gene mutation, Assay Code: NEF+, Evaluation Type: Evaluation A (Pre-1980)) was “active; positive”, the mutagenic call [10] was “active; positive” and the mutagenic call [3] was “active; positive”. The mutagenic call (Species/Cell Type: Salmonella typhimurium, Assay Type: Forward and reverse gene mutation, body fluid assay, Assay Code: BFU+, Evaluation Type: Evaluation A (Pre-1980)) was “active; positive” and the mutagenic call [15] was “active; positive”.
In the case of CC(C)C(=O)Nc1ccc([N+](=O)[O-])c(C(F)(F)F)c1, the mutagenic call [9] is reported as “inactive; negative”.
For C=C(C)C(=O)/C(=C\C(=O)O)OC, the mutagenic call [8] was “active; positive”, the call [14] was “active; positive” and the mutagenic call (Species/Cell Type: Saccharomyces cerevisiae, Assay Type: Mitotic recombination or gene conversion, Assay Code: YEH-, Evaluation Type: Evaluation A (Pre-1980)) was “inactive; negative”. For the same compound, the mutagenic call [1] was “no conclusion”.
ClCc1ccc(-c2ccccc2)cc1 was tested, and the mutagenic call [11] was “no conclusion”, the mutagenic call [12] was “active; positive” and the mutagenic call [13] was “active; positive”. The mutagenic call (Species/Cell Type: Mammalian polychromatic erythrocytes, Assay Type: Micronucleus test, chromosome aberrations, Assay Code: MNT-, Evaluation Type: Evaluation B (Post-1980)) was “inactive; negative”.
Cc1cc(Cl)ccc1OCC(=O)O was tested, and the mutagenic call (Species/Cell Type: Drosophila melanogaster, Assay Type: Aneuploidy, sex chromosome gain, chromosome aberrations, Assay Code: DAG-M-F, Evaluation Type: Evaluation A (Pre-1980)) was “inactive; negative”, the mutagenic call (Species/Cell Type: Drosophila melanogaster, Assay Type: Aneuploidy, whole sex chromosome loss, chromosome aberrations, Assay Code: DAC-M-F, Evaluation Type: Evaluation A (Pre-1980)) was “inactive; negative” and the mutagenic call (Species/Cell Type: Drosophila melanogaster, Assay Type: Sex-linked recessive lethal gene mutation, Assay Code: SRL+, Evaluation Type: Evaluation A (Pre-1980)) was “active; positive”. The mutagenic call [10] was “active; positive” and the mutagenic call (Species/Cell Type: Salmonella typhimurium, Serratia marcesens, Assay Type: Forward and reverse gene mutation, host-mediated assay, Assay Code: HM2-, Evaluation Type: Evaluation A (Pre-1980)) was “inactive; negative”.
O=S(=O)(Cl)c1cccc2cccnc12 was tested, and the mutagenic call [1] was “no conclusion”.
With O=[N+]([O-])c1cnc2ccccc2c1 the mutagenic call (Species/Cell Type: Neurospora crassa, Assay Type: Aneuploidy, chromosome aberrations, Assay Code: NEN-, Evaluation Type: Evaluation A (Pre-1980)) was “inactive; negative”.
